# Experimental data taken from the supplement of paper PMC10307832.
# Legend:
# Assay in all cases: relative viability (nuclei count vs DMSO), 5 days (fraction); higher = more cells survive
# [1] = compound: NCC(=O)Nc1ccc(-n2nc(C(F)(F)F)cc2-c2ccc3c(ccc4ccccc43)c2)cc1 + C[C@]1(O)C[C@@H](c2nc(-c3ccc4ccc(-c5ccccc5)nc4c3)c3c(N)nccn32)C1 [Linsitinib] (partner 1 µM)
# Procedure, shortened: (§1)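 Nuclei were stained with Hoechst during a one-step fixation (final 0.05% Triton X-100, 1% formaldehyde, 1 ug/ml Hoechst) carried out 5 days after dosing, then counted on 4× images. The cells, lung cancer lines in 1536-well plates, had been dosed by pin tool the day after seeding with one drug alone or a fixed anchor-drug dose plus five library-drug doses (not always all listed) in √10 steps. Relative viability is the nuclei count in treated wells divided by that in vehicle wells, and each value is the median of duplicate plates.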
# [2] = compound: NCC(=O)Nc1ccc(-n2nc(C(F)(F)F)cc2-c2ccc3c(ccc4ccccc43)c2)cc1 + CCNC(=O)c1noc(-c2cc(C(C)C)c(O)cc2O)c1-c1ccc(CN2CCOCC2)cc1 [Luminespib] (partner 0.01 µM)
# Procedure, shortened: as §1
# [3] = compound: NCC(=O)Nc1ccc(-n2nc(C(F)(F)F)cc2-c2ccc3c(ccc4ccccc43)c2)cc1 + Cc1nc(Nc2ncc(C(=O)Nc3c(C)cccc3Cl)s2)cc(N2CCN(CCO)CC2)n1 [Dasatinib] (partner 0.075 µM)
# Procedure, shortened: as §1
# [4] = compound: C1CSC2=C(C(=O)N1)SC3=C2C=C(C=C3)O [kb NB 142-70] + CC(C)C[C@H](NC(=O)[C@H](Cc1ccccc1)NC(=O)c1cnccn1)B(O)O [Bortezomib] (partner 0.002 µM)
# Procedure, shortened: as §1
Cell Line,relative viability ([1]; first compound 0.02 µM),relative viability ([1]; first compound 0.06325 µM),relative viability ([1]; first compound 0.2 µM),relative viability ([1]; first compound 0.6325 µM),relative viability ([1]; first compound 2 µM),relative viability ([2]; first compound 0.02 µM),relative viability ([2]; first compound 0.06325 µM),relative viability ([2]; first compound 0.2 µM),relative viability ([2]; first compound 0.6325 µM),relative viability ([2]; first compound 2 µM),relative viability ([3]; first compound 0.02 µM),relative viability ([3]; first compound 0.06325 µM),relative viability ([3]; first compound 0.2 µM),relative viability ([3]; first compound 0.6325 µM),relative viability ([3]; first compound 2 µM),relative viability ([4]; first compound 0.1 µM),relative viability ([4]; first compound 1 µM),relative viability ([4]; first compound 3.162 µM)
HOP-62,1.14,0.901,0.854,1.03,1.05,0.887,0.911,0.862,0.9,0.951,0.725,0.629,0.699,0.652,0.679,0.919,1,0.569
IA-LM,0.802,0.39,0.558,0.706,0.539,,,,,,,,,,,0.765,1.06,0.647
LC-2-ad,0.996,0.94,0.876,0.852,0.897,1.01,1.05,1.12,1.11,1.14,0.478,0.677,0.609,0.714,0.577,1.12,1.03,0.916
LCLC-97TM1,0.146,0.185,,0.198,0.183,0.869,0.76,0.689,0.8,0.831,0.901,0.809,0.797,0.827,0.752,0.853,0.563,0.123
LCLC-103H,1.16,0.997,1.12,1.11,0.978,0.932,0.919,1.03,0.925,0.895,0.439,0.458,0.485,0.465,0.433,1.17,1.09,1.07
LK-2,0.686,0.437,0.483,0.555,0.522,0.173,0.195,0.217,0.173,0.208,0.32,0.325,0.271,0.266,0.263,,,
LOU-NH91,0.984,1.04,0.891,0.959,1.09,0.334,0.38,0.314,0.339,0.352,0.577,0.601,0.536,0.558,0.541,0.467,0.431,0.353
LU99A,0.556,0.571,0.555,0.618,0.532,0.261,0.249,0.229,0.238,0.19,0.505,0.602,0.538,0.598,0.347,1.29,0.995,0.732
LXF-289,0.924,0.995,0.989,0.985,0.901,0.686,0.67,0.633,0.637,0.702,0.188,0.246,0.315,0.218,0.241,1.02,0.942,0.895
NCI-H23,0.484,0.582,0.662,0.476,0.552,,0.217,0.216,0.222,0.234,0.885,0.781,0.825,0.73,0.832,1.1,0.896,0.516
